Values quoted from earlier work, collected in US11833161B2, “Compositions and methods for treatment of skin infections” (priority 2015, dated 2023).

Key:
warts (verrucae) = settings: one case, 2 large mosaic verruca; previous treatments by 2 podiatrists and a dermatologist over 14 months
cutaneous warts = settings: meta-analysis of trials, topical treatment of cutaneous warts; range in brackets

Molecule | outcome of previous treatments in the difficult case (warts (verrucae)) | cure rate (cutaneous warts)
CN/C(=N/CCSCc1nc[nH]c1C)NC#N [cimetidine] | unsuccessful | –
O=C(O)c1ccccc1O [salicylic acid] | – | 52% (0-87%)
Vitamin A | unsuccessful | –
